The values below come from ChEMBL document CHEMBL1136840 (Bioorg Med Chem Lett, 2009).

The test has as its target T1, Carbonic anhydrase 15 (Mus musculus, UniProt Q99N23).
T1 sequence (Q99N23 whole entry): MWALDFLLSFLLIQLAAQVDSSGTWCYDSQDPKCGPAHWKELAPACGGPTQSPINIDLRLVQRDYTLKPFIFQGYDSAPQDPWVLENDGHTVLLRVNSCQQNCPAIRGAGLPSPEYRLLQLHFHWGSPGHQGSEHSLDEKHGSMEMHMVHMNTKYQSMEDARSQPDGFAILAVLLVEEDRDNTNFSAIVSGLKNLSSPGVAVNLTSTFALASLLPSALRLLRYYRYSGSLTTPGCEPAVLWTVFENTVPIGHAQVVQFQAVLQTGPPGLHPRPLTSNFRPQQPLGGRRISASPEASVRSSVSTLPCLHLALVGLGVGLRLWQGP

Broadly, the Ki is a measure of affinity in units of concentration, obtained from inhibition or displacement. A low value points to higher affinity. As to `NS(N)(=O)=O` [SULFAMIDE], the Ki is 37.4 µM.
